Test: pharmacokinetic studies (PK) of solid dispersions in fasted, famotidine or pentagastrin pre-treated dogs
Type: in vivo
Settings: above pH 2.5; dogs following pre-treatment with famotidine (FIG. 1)
Procedure: Several rounds of pharmacokinetic studies (PK) were performed and included four diverse solid dispersions comprising 50 wt % amorphous (R)—N-((4-methoxy-6-methyl-2-oxo-1,2-dihydropyridin-3-yl)methyl)-2-methyl-1-(1-(1-(2,2,2-trifluoroethyl)piperidin-4-yl)ethyl)-1H-indole-3-carboxamide and PVP, PVP-PA with NaHCO3, HPMC, and HPMC-AS polymer systems, in fasted, famotidine treated dogs at a 30 mg/kg dose.
All solid dispersions were prepared as aqueous suspensions at 60 mg/mL in the toxicology vehicle, 0.5% MC/0.1% Tween 80 and does with 30 minutes of preparation. All dogs tested were carried over from study to study.

COc1cc(C)[nH]c(=O)c1CNC(=O)c1c(C)n([C@H](C)C2CCN(CC(F)(F)F)CC2)c2ccccc12 [(R)—N-((4-methoxy-6-methyl-2-oxo-1,2-dihydropyridin-3-yl)methyl)-2-methyl-1-(1-(1-(2,2,2-trifluoroethyl)piperidin-4-yl)ethyl)-1H-indole-3-carboxamide]
absorption: reduced absorption

Reference: patent US20190381025A1, “SOLID DISPERSIONS OF (R)-N-((4-METHOXY-6-METHYL-2-OXO-1,2-DIHYDROPYRIDIN-3-YL)METHYL)-2-METHYL-1-(1-(1-(2,2,2-TRIFLUOROETHYL)PIPERIDIN-4-YL)ETHYL)-1H-INDOLE-3-CARBOXAMIDE” (Constellation Pharmaceuticals, Inc., priority 2017, published 2019)
